Where two headings read alike, the source gives them in different places.
Tests used:
[1] = system: nucleoplasmin-coated gold particles; experiment: Nuclear import of nucleoplasmin-coated gold particles
[2] = target: T1, pseudovirion-derived nucleoprotein complexes / karyopherin α (Human immunodeficiency virus type 1 group M subtype B, UniProt P04591); experiment: Binding of pseudovirion-derived nucleoprotein complexes to GST-karyopherin α; format: biochemical, HIV-1; settings: various concentrations
T1 construct: composed exclusively of Gag (MA, CA, NC, p6) and Env (gp41 and gp120) proteins; endogenous in cells; host or cells: cytoplasmic lysate of H9 cells inoculated with HIV-like gag-env pseudovirions (Haffar et al. 1990)
Method: Cytoplasmic lysates of H9 cells infected with HIV-1RF (upper panel) or HIV-like pseudovirions (bottom panel) were treated for 2 hours with various concentrations of CNI-H0294, and were then mixed with GST-karyopherin α immobilized on glutathione Sepharose beads. HIV-1 DNA or RNA that co-precipitated with karyopherin α was quantified as in A and B.
H9 cells were infected with HIV-1 or HIV-like pseudovirions (Haffar, et al., 1990, J. Virol., 64:2653-2659) at a multiplicity adjusted according to p24 content (50 ng p24 per 10^6 cells) The MA NLS^− virus contains substitutions of isoleucine residues for lysines in positions 26 and 27 of MA in an NLHX backbone (Westervelt., et al., 1992, J. Virol. 66:2577-2582), thus inactivating the NLS. The Vpr^− virus has the initiating ATG of the vpr gene changed to GTG, thus abolishing expression of this gene. The ΔMA NLS pseudovirions have leucine substituting for lysine in position 28 of MA. This mutation abrogates nuclear translocation of HIV-1 gag RNA in growth-arrested H9 cells infected with pseudovirions. […]
Cytoplasmic extracts prepared from HIV-1-or pseudovirion-infected H9 cells were adjusted to 0.14 M NaCl, 0.1% Tween 20 and precleared with glutathione-Sepharose beads for 30 min. at room temperature. Karyopherin α was expressed as a fusion protein with glutathione S-transferase (GST) which can bind glutathione beads in solution. […]

[3] = system: monocyte and T lymphocyte cultures; experiment: Cytotoxicity in monocyte and T lymphocyte cultures in vitro; format: cell-based
[4] = target: T2, HIV-1 pre-integration complex (MA / HIV-1 cDNA) (Human immunodeficiency virus type 1 group M subtype B, UniProt P05890+P05959); experiment: Association of MA with HIV-1 cDNA (anti-MA immunoprecipitation of viral DNA); format: biochemical; settings: 10 μM (FIG. 13A)
T2 construct: MA is made from the Gag precursor and RT is made from the Gag-Pol precursor; endogenous in cells; host or cells: cytoplasmic extract of H9 cells infected with HIV-1RF
Method: Cytoplasmic extracts prepared from H9 cells infected with HIV-1RF were treated with 10 μM CNI-H0294 (lanes 2, 3, and 4) or left untreated (lane 1). Samples were divided into two aliquots. One aliquot was mixed with GST-karyopherin α immobilized on Sepharose beads and the HIV-1 DNA that bound was quantified by PCR. The second aliquot was immunoprecipitated (IP) with anti-MA serum (αMA, lane 3) or with pre-immune serum (NSS, lane 4) as control.
To test this hypothesis, cytoplasmic lysates of HIV-1-infected H9 cells were treated with CNI-H0294 and mixed with immobilized karyopherin α or subjected to immunoprecipitation with antibodies that bind MA.

Plasmodium falciparum = experiment: Antimalarial activity in vitro, [3H]-hypoxanthine incorporation; format: cell-based; settings: Plasmodium falciparum
Text: The antimalarial properties of the compounds of the invention can be analyzed by techniques, assays and experimental animal models well known in the art. For example, the inhibition of growth of Plasmodium falciparum in vitro by the compounds may be assessed by the hypoxanthine-incorporation method (Desjardins et al., 1979, Antimicrob. Ag. Chemother. 16:710-718). […] The in vivo efficacy of the compounds can also be tested in mouse models in which parasitemia is enumerated following administration of the compound (Ager, A. L. 1984, Rodent malaria models, pp 225-264. In Handbook of Experimental Pharmacology vol. 68, Antimalarial Drugs, Peters and Richards eds, Springer-Verlag, Berlin).
The antimalarial activity of the compounds was determined essentially as described in Desjardins et al. supra. Fifty μl of various concentrations of a compound of the invention, chloroquine, or pyrimethamine were added to the wells of microtiter plates, followed by 200 μl of ring-stage, synchronized, P. falciparum-infected erythrocytes (final hematocrit=1.5%, final parasitemia=1-5%). The plates were incubated for 24 hr in a candle jar kept at 37° C., and then 25 μl of [^3H]-hypoxanthine (Amersham, Arlington Heights, ILL.; 2.5 μl Ci/well) was added. The plates were then incubated for a further 24 hr, before harvesting onto Unifilter-96 GF/C filter-microplates (Packard; Meriden, Conn.). Twenty-five μl of Microscint scintillation fluid (Packard) was added to each well of the filter-microplate, which was subsequently counted in a Top-count microplate scintillation counter (Packard). The percent of [^3H]-hypoxanthine uptake relative to control infect-erythrocytes was used to determine the IC50 value for the compounds by non-linear regression for LD50 determination.

HIV-1 = experiment: Reverse transcription of HIV-1 in infected cells; format: cell-based

In the case of CC(=O)c1cc(Nc2cc(C)[n+](C)c(N)n2)cc(C(C)=O)c1 [CNI-0294, 2-Amino-4-(3,5-diacetylphenyl)amino-1,6-dimethylpyrimidinium chloride], the “block of nuclear import of nucleoplasmin-coated gold particles” value [1] is reported as “did not block”, the “inhibition of binding of karyopherin α to pseudovirion-derived nucleoprotein complexes” value [2] is reported as “did not inhibit” and the 50% toxic dose [3] is reported as > 1 mM. For the same compound, the “immunoprecipitation of viral DNA with anti-MA serum” value [4] was “did not prevent immunoprecipitation of viral DNA with anti-MA serum”, the IC50 (Plasmodium falciparum; FCR3, clone FCR-3, ± standard deviation, read-out: IC50) was 3.09 ± 0.3 µM and the IC50 (Plasmodium falciparum; HB3, clone HB3, ± standard deviation, read-out: IC50) was 1.79 ± 0.27 µM. For the same compound, the IC50 (Plasmodium falciparum; clone D10, ± standard deviation, read-out: IC50) was 4 ± 0.41 µM, the IC50 (Plasmodium falciparum; series of cloned parasites with different sensitivities to chloroquine or pyrimethamine, read-out: median inhibitory concentration (IC50)) was 1.79 to 4 µM and the “inhibition of reverse transcription of HIV-1 in infected cells” value (HIV-1) was “did not significantly inhibit”.

From patent US6649797B2, “Compounds and methods of use to treat infectious diseases” (The Picower Institute for Medical Research, priority 1996, dated 2003)
